Reference: US11077100B2, “Tetrahydroquinoline derivatives as P2X7 receptor antagonists” (RaQualia Pharma Inc., priority 2017, dated 2021)

Experiments:
[1] = target: human P2X7 (Homo sapiens (Human), UniProt Q99572); assay: Human P2X7 functional assay (Ca2+ influx, Fluo-4, FDSS); assay type: cell-based; conditions: antagonistic activity with respect to the human P2X7 receptor; BzATP final concentration 80 microM
Method in brief: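 HEK293 cells stably expressing C-terminally FLAG-tagged human P2X7, loaded with Fluo-4. Compounds were preincubated for 10 min at room temperature, then 80 μM BzATP (final) was added and Ca2+ fluorescence read at 540 nm (480 nm excitation) by FDSS. IC50 values come from 7-point curves, duplicate wells.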

[2] = target: rat P2X7 (Rattus norvegicus (Rat), UniProt Q64663); assay: Rat P2X7 functional assay (Ca2+ influx, Fluo-4, FDSS); assay type: cell-based; conditions: HEK293 cells stably expressing rat P2X7; BzATP final 10 microM; 7-point dose-response; read-out: Antagonistic activities with respect to the rat P2X7 receptor (IC50)
Chain of rat P2X7 (Q64663 whole entry): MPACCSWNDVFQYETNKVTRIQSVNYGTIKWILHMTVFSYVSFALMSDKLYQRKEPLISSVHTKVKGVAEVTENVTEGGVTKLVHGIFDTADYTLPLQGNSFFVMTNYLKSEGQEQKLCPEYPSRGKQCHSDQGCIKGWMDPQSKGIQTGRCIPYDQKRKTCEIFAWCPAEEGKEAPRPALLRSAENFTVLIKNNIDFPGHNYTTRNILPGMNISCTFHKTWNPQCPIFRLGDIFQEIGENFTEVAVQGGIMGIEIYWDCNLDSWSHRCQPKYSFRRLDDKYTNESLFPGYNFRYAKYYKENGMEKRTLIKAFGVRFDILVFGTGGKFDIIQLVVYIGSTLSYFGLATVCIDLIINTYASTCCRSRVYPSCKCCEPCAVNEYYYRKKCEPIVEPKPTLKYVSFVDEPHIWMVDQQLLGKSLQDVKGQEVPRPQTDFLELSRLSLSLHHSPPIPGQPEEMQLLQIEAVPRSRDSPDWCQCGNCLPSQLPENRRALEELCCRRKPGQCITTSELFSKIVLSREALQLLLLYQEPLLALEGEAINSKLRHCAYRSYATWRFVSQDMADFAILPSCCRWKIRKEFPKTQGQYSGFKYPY
Method in brief: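 HEK293 cells stably expressing rat P2X7 (5,000/well, plated 24 h before) loaded with Fluo-4; compounds preincubated 10 min at room temperature, then Ca2+ rise after 10 microM BzATP (final) read on FDSS (480/540 nm). IC50 from 7-point curves, duplicate wells.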

Chain of human P2X7 (Q99572 whole entry): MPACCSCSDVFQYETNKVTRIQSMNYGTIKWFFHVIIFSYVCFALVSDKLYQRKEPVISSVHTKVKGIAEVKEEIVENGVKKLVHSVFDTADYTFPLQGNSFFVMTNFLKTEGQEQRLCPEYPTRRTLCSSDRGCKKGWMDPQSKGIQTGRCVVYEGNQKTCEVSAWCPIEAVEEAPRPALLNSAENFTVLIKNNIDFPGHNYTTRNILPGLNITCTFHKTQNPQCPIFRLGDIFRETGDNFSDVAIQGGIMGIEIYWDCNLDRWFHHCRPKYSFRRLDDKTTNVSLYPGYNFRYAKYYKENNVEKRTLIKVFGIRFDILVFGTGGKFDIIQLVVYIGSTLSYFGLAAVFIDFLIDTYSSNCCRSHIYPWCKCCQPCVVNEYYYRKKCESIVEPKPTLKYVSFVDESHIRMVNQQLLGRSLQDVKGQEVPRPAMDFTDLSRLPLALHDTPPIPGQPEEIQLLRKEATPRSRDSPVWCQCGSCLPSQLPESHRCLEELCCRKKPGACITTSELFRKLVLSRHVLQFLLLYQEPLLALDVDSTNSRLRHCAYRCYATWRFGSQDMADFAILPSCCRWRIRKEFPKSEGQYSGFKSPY

Row | SMILES | IC50 [1] [nM] | IC50 [2] [nM]
1 | COCc1cc(Cl)cc(Cl)c1CNC(=O)C1(F)CCC(O)c2ncccc21 (stereo not drawn) [Example 23, N-(2,4-dichloro-6-(methoxy-methyl)benzyl)-5-fluoro-8 hydroxy-5,6,7,8-tetrahydro-quinoline-5-carboxamide] | < 50 | < 1000
2 | C[C@@]1(O)CC[C@@](F)(C(=O)NCc2ccc(F)cc2Cl)c2cccnc21 [Example 260, (5S,8R)-N-(2-chloro-4-fluorobenzyl)-5-fluoro-8-hydroxy-8-methyl-5,6,7,8-tetrahydroquinoline-5-carboxamide] | 301 to 1000 | < 1000
3 | O=C(NCc1c(F)cc(Cl)cc1Cl)[C@@H]1CC[C@H](O)c2ncccc21 [Example 70, (5R,8S)-N-(2,4-dichloro-6-fluorobenzyl)-8-hy-droxy-5,6,7,8-tetrahydro-quinoline-5-carboxamide] | < 50 | < 1000
4 | C[C@]1(O)CC[C@@](F)(C(=O)NCc2ccc(F)c(Cl)c2F)c2cccnc21 [Example 268, (5S,8S)-N-(3-chloro-2,4-difluorobenzyl)-5-fluoro-8-hydroxy-8-methyl-5,6,7,8-tetrahydroquinoline-5-carboxamide] | < 50 | < 1000
5 | O=C(N[C@@H]1CCc2ccccc21)[C@]1(F)CC[C@H](O)c2ncccc21 [Example 196, (5S,8S)-N-((R)-2,3-dihydro-1H-inden-1-yl)-5-fluoro-8-hydroxy-5,6,7,8-tetrahydroquinoline-5-carboxamide] | < 50 | < 1000
6 | O=C1CC[C@@](F)(C(=O)NCc2ccc(F)cc2Cl)c2cccnc21 [Example 249, (S)-N-(2-chloro-4-fluorobenzyl)-5-fluoro-8-oxo-5,6,7,8-tetra-hydroquinoline-5-carboxamide] | 50 to 100 | < 1000
7 | N#CC[C@@]1(O)CC[C@@](F)(C(=O)NCc2ccc(F)cc2Cl)c2cccnc21 [Example 282, (5S,8S)-N-(2-chloro-4-fluorobenzyl)-8-(cyanomethyl)-5-fluoro-8-hydroxy-5,6,7,8-tetrahydroquinoline-5-carboxamide] | < 50 | < 1000
8 | O=C(NCc1c(Cl)ccc(Cl)c1Cl)[C@]1(F)CC[C@H](O)c2ncccc21 [Example 165, (5S,8S)-5-fluoro-8-hydroxy-N-(2,3,6-trichlorobenzyl)-5,6,7,8-tetrahydroquinoline-5-carboxamide] | < 50 | < 1000
9 | O=C(NCc1ccc(F)c(F)c1Cl)[C@]1(F)CC[C@](O)(CO)c2ncccc21 [Example 313, (5S,8R)-N-(2-chloro-3,4-difluorobenzyl)-5-fluoro-8-hydroxy-8-(hydroxymethyl)-5,6,7,8-tetrahydroquinoline-5-carboxamide] | 50 to 100 | < 1000
10 | O=C1CC[C@@](F)(C(=O)NCc2cccc(Cl)c2Cl)c2cccnc21 [Example 252, (S)-N-(2,3-dichloro-benzyl)-5-fluoro-8-oxo-5,6,7,8-tetrahydroquinoline-5-carboxamide] | < 50 | < 1000
11 | O=C(NCc1cccc(C(F)(F)F)c1Cl)C1(F)CCC(O)(CO)c2ncccc21 (stereo not drawn) [Example 35, N-(2-chloro-3-(trifluoromethyl)benzyl)-5-fluoro-8-hydroxy-8-(hydroxymethyl)-5,6,7,8-tetrahydroquinoline-5-carboxamide] | < 50 | < 1000
12 | Cc1cc(Cl)cc(Cl)c1CNC(=O)C1(F)CCC(O)(CN)c2ncccc21 (stereo not drawn) [Example 45, 8-(aminomethyl)-N-(2,4-dichloro-6-methylbenzyl)-5-fluoro-8-hydroxy-5,6,7,8-tetrahydro-quinoline-5-carboxamide] | < 50 | < 1000
13 | O=C(NCc1ccc(F)cc1Cl)[C@]1(F)CC[C@@](O)(CN2CC(O)C2)c2ncccc21 (relative stereo) [Example 52, (5S*,8R*)-N-(2-chloro-4-fluorobenzyl)-5-fluoro-8-hy-droxy-8-((3-hydroxy-azetidin-1-yl)methyl)-5,6,7,8-tetrahydro-quinoline-5-carboxamide] | < 50 | < 1000
14 | O=C(NCc1cc(F)cc(Cl)c1)[C@]1(F)CC[C@H](O)c2ncccc21 [Example 203, (5S,8S)-N-(3-chloro-5-fluorobenzyl)-5-fluoro-8-hydroxy-5,6,7,8-tetrahydroquinoline-5-carboxamide] | 50 to 100 | < 1000
15 | C[C@]1(O)CC[C@@](F)(C(=O)NCc2ccc(F)c(F)c2F)c2cccnc21 [Example 258, (5S,8S)-5-fluoro-8-hydroxy-8-methyl-N-(2,3,4-trifluorobenzyl)-5,6,7,8-tetrahydroquinoline-5-carboxamide] | < 50 | < 1000
16 | O=C(NCc1ncc(Cl)cc1Cl)[C@]1(F)CC[C@H](O)c2ncccc21 [Example 177, (5S,8S)-N-((3,5-dichloropyridin-2-yl)methyl)-5-fluoro-8-hydroxy-5,6,7,8-tetrahydroquinoline-5-carboxamide] | < 50 | < 1000
17 | O=C(NCc1ccc(Cl)cc1Cl)C1(F)CCC(O)(CO)c2ncccc21 (stereo not drawn) [Example 37, N-(2,4-dichlorobenzyl)-5-fluoro-8-hy-droxy-8-(hydroxymethyl)-5,6,7,8-tetra-hydroquinoline-5-carboxamide] | < 50 | < 1000
18 | O=C(NCc1cccc(Cl)c1F)[C@]1(F)CC[C@H](O)c2ncccc21 [Example 190, (5S,8S)-N-(3-chloro-2-fluorobenzyl)-5-fluoro-8-hydroxy-5,6,7,8-tetrahydroquinoline-5-carboxamide] | < 50 | < 1000
19 | O=C(NCc1cccc(C(F)(F)F)c1Cl)[C@@]1(F)CC[C@@H](O)c2ncccc21 [Example 128, (5R,8R)-N-(2-chloro-3-(trifluoromethyl)benzyl)-5-fluoro-8-hydroxy-5,6,7,8-tetrahydroquinoline-5-carboxamide] | < 50 | < 1000
20 | O=C(NCc1ccc(Cl)cc1Cl)[C@]1(F)CC[C@@](O)(CO)c2ncccc21 [Example 304, (5S,8S)-N-(2,4-dichlorobenzyl)-5-fluoro-8-hydroxy-8-(hydroxymethyl)-5,6,7,8-tetrahydroquinoline-5-carboxamide] | < 50 | < 1000
21 | O=C(NCc1ccc(F)cc1Cl)[C@]1(F)CC[C@H](O)c2ncccc21 [Example 135, (5S,8S)-N-(2-chloro-4-fluorobenzyl)-5-fluoro-8-hydroxy-5,6,7,8-tetrahydroquinoline-5-carboxamide] | < 50 | < 1000
22 | Cc1cc(Cl)cc(Cl)c1CNC(=O)[C@]1(F)CC[C@@H](O)c2ncccc21 [Example 100, (5S,8R)-N-(2,4-dichloro-6-methylbenzyl)-5-fluoro-8-hydroxy-5,6,7,8-tetrahydroquinoline-5-carboxamide] | < 50 | < 1000
23 | O=C(NCc1ccc(F)c(F)c1Cl)[C@]1(F)CC[C@@](O)(CO)c2ncccc21 [Example 312, (5S,8S)-N-(2-chloro-3,4-difluorobenzyl)-5-fluoro-8-hydroxy-8-(hydroxymethyl)-5,6,7,8-tetrahydroquinoline-5-carboxamide] | < 50 | < 1000
24 | O=C(NC1COc2ccccc2C1)[C@]1(F)CC[C@H](O)c2ncccc21 (stereo partly drawn) [Example 233, (5S,8S)-N-(chroman-3-yl)-5-fluoro-8-hydroxy-5,6,7,8-tetrahydroquinoline-5-carboxamide] | 101 to 300 | < 1000
